Measurements as given in patent US9157904B2, “Wnt antagonists and methods of treatment and screening” (OncoMed Pharmaceuticals, Inc., priority 2010, dated 2015).
Values joined by “and” are separate entries in the source; they are usually repeats but may differ in a detail not shown here. Identical values can stand only once.

Key:
PN4 pancreatic tumors = experiment: In vivo limiting dilution assay of treated PN4 tumors; design: species or system NOD/SCID mice; conditions: day 75 after injection of 30, 90, 270 cells, control 7 out of 30
Excerpt: Limiting dilution assays (LDA) can be used to assess the effect of therapeutic agents on solid tumor cancer stem cells and on the tumorigenicity of a tumor comprising the cancer stem cells. Such assays can be used to determine the frequency of cancer stem cells in tumors from animals treated with the FZD8-Fc fusion protein or other agent and to compare that frequency to the frequency of cancer stem cells in tumors from control animals. Control and treated tumors from the PN4 xenograft study described above were harvested at the end of the study (day 85). The tumors were processed and dissociated into single cells. […] The human cells in the suspension were harvested, counted, and stained for cell surface markers and appropriate cell doses (30, 90, and 270 cells) in FACS buffer were mixed in a 1:1 mixture with Matrigel and injected subcutaneously in NOD/SCID mice (10 mice per cell dose per treatment group). […] At the desired time point, the percentage of mice with detectable tumors was determined in all groups injected with FZD8-Fc-treated tumor cells and compared to the percentage of mice with detectable tumors in the controls. For example, the number of mice injected with 125 control antibody-treated tumor cells that have detectable tumors is determined and compared to the number of mice injected with 125 FZD8-Fc treated tumor cells that have detectable tumors. […]

[1] = tested on: canonical Wnt signaling pathway; experiment: Luciferase reporter assay in STF293 cells with Wnt3a-conditioned medium; format: cell-based; conditions: blocking of Wnt3a-induced luciferase in STF293 cells; relative to reference standard set at 100%
Description: The ability of the FZD8-Fc variants to block or inhibit activation of the Wnt signaling pathway was determined in vitro using a luciferase reporter assay. STF293 cells were cultured in DMEM supplemented with antibiotics and 10% FCS. The STF293 cells are stably transfected with a reporter vector containing seven copies of the TCF transcriptional response element linked to a promoter upstream of a firefly luciferase reporter gene. This construct measures the activity of the canonical Wnt signaling pathway. The cells were added to cultures plates at 10,000 cells per well. After an overnight incubation the FZD8-Fc variants or control mouse JAG1-Fc were added in combination with Wnt3a-conditioned medium. The FZD8-Fc variants and JAG1-Fc were used at concentrations of 20, 4, 0.8, 0.16, 0.03, 0.006, 0.0012, and 0.0003 ug/ml. The cells were incubated in 25% Wnt3A-conditioned medium that had been prepared from L cells that stably express Wnt3a. After overnight incubation (approximately 18 hrs), luciferase levels were measured using a Steady-Glo® luciferase assay kit (Promega, Madison, Wis.).
The blocking activity of the FZD8-Fc variants was determined and is presented in Table 3 as relative activity as compared to the same reference standard run in each assay which was set at 100%.

PN13 tumors = experiment: Muc16 immunohistochemistry of treated PN13 tumors; format: in vivo, NOD/SCID mice; conditions: vs control antibody
Description: The cell differentiation capability of FZD8-Fc was also evaluated in the OMP-PN13 pancreas tumor xenograft model. Dissociated OMP-PN13 cells (50,000 per animal) were injected subcutaneously into 6-8 week old male NOD/SCID mice. Tumor growth was monitored weekly and tumor measurements were initiated once tumors were palpable. On day 40 mice with average tumor volume of 114 mm^3 were randomized into 4 groups of 10 animals each. Animals were injected with either control antibody or FZD8-Fc (15 mg/kg). Administration of the FZD8-Fc and control antibody was performed via injection into the intraperitoneal cavity, twice weekly. After 19 days of treatment, the tumors were excised and immunohistochemistry analysis was performed using standard techniques. Briefly, tumors were fixed in formalin, embedded in paraffin, and tumor sections of 4 μm thickness were cut. After deparaffinization and hydration, the tumor sections were subjected to an antigen retrieval process in Tris buffer (pH 9.5). Sections were incubated with hydrogen peroxide (Sigma-Aldrich, St Louis, Mo.) for 10 minutes to block endogenous peroxidases. […]
Tumor sections from PN13 tumors treated with control antibody or FZD8-Fc were obtained and treated as described above. […] The bound antibody was detected using the immunohistochemistry protocol described above.

C28 colon tumor = C28 colon tumor xenograft, FZD8-Fc variants (Example 17); format: in vivo, NOD/SCID mice; conditions: C28 established tumors; 15 mg/kg i.p. twice a week; after three weeks of treatment
Description: Dissociated C28 colon tumor cells (10,000 cells) were injected subcutaneously into 6-8 week old male NOD/SCID mice. Tumors were allowed to grow for 56 days until they reached an average volume of 175 mm^3. The mice were randomized (n=10 per group) and treated with FZD8-Fc constructs 54F03, 54F23, 54F26, or a control antibody at a dose of 15 mg/kg twice a week. Administration of the FZD8-Fc variants and control antibody was performed via injection into the intraperitoneal cavity. Tumor growth was monitored and tumor volumes were measured with electronic calipers at the indicated time points. Data are expressed as mean±S.E.M.

[2] = Pharmacokinetics of FZD8-Fc variants in rats; conditions: rat, tail vein, 10 mg/kg, plasma
Description: The pharmacokinetics of several FZD8-Fc variants were assessed in rats in a two week pharmacokinetics (PK) study. […] Sprague Dawley rats, five males in each group, were dosed with FZD8-Fc variants via the tail vein at 10 mg/kg and followed for two weeks with samples collected at time points 1, 24, 48, 72, 96, 168, 240, and 336 hours. At each time point, 1 ml of blood was collected into potassium-EDTA tubes and centrifuged. The plasma supernatants were collected and frozen until the samples were analyzed.
The level of FZD8-Fc variant protein present in the plasma at each time point was quantified and the half-life of each FZD8-Fc variant was calculated.

Question: Which tumor take rate (PN4 pancreatic tumors) does the source give for “54F03: Fri domain of human FZD8 fused to human IgG1 Fc with GRA linker; SEQ ID NO:1” here?
Answer: 3 mice out of 30 mice

Question: And the “% Relative Activity” value [1]?
Answer: 107% and 143%

Question: What about the “cells expressing Muc16” value (PN13 tumors) of the same substance?
Answer: increase in cells expressing Muc16

Question: What about the “reduction of tumor growth as compared to control antibody” value (C28 colon tumor) of the same substance?
Answer: 48%

Question: What about the t1/2 in hours [2] of the same substance?
Answer: 162 h
